In patent US11304974B2, “Nanosystems comprising silver and antibiotics and their use for the treatment of bacterial infections” (priority 2017, dated 2022):
Read-outs that look alike come from different tables or passages of the source.

Tests used:
[1] = test system: Pseudomonas MexR Mutant (efflux pump over-expression); experiment: Silver-antibiotics interaction study, MicroScan (Example 4); format: cell-based, Pseudomonas aeruginosa; conditions: colloidal silver at ½ MIC
From the text: (§1) For this, an automated equipment MicroScan AutoScan 4 (Siemens) was used, using Gram negative (Becman Coulter NM37) and Gram positive (Becman Coulter PM28) cards.

[2] = test system: Pseudomonas DacB Mutant (hiperproducing AMPC); experiment: as above; format: cell-based, Pseudomonas aeruginosa; conditions: subinhibitory colloidal silver (½ or 1/10 MIC)
Method: (§2) The effect of subinhibitory concentrations of colloidal silver (namely, ½ and 1/10 dilution of the MIC obtained in Example 3) in the presence of different types of antibiotics was tested.
as §1
(§3) Each of these broths served as inoculum for the cards with antibiotics (for each strain, thus 3 cards were prepared). • Incubating the plates with antibiotics (in presence and absence of silver) at 37° C. for 24 h. • Reading the cards by use of LabPro software, and interpretation of the obtained values of MIC (determine if the silver reduces the initial MCI of each antibiotic).

E. coli BLEE + = experiment: as above; format: cell-based, Escherichia coli; conditions: subinhibitory colloidal silver (½ or 1/10 MIC)
Method: as §2, §1, §3

Klebsiella BLEE + = experiment: as above; format: cell-based, Klebsiella pneumoniae; conditions: subinhibitory colloidal silver (½ or 1/10 MIC)
Method: as §2, §1, §3

[3] = test system: S. aureus Sa-9 (strain 8); experiment: Epsilometry E-test, absence and presence of silver (Example 5); format: cell-based; conditions: Staphylococcus aureus, strain 8 (S. aureus Sa-9)
Method: (§4) In order to evaluate the synergy of collargol-antibiotics an epsilometry E-test was carried out. Said test is based on the agar diffusion method and relates to using a strip with a predefined steady gradient of 15 concentrations of the antibiotic being tested. After strain growth, an elliptical inhibition halo, being the MIC the antibiotic concentration corresponding to the cutting point.
(§5) It was performed for the antibiotics vancomycin, linezolid and tedizolid, in absence and presence of silver (½ and 1/10 MIC).

[4] = test system: S. aureus Sa-10 (strain 9); experiment: as above; format: cell-based; conditions: Staphylococcus aureus, strain 9 (S. aureus Sa-10)
Method: as §4, §5

[5] = test system: S. aureus Sa-1 (strain 1); experiment: as above; format: cell-based; conditions: Staphylococcus aureus, strain 1 (S. aureus Sa-1)
Method: as §4, §5

[6] = test system: S. epidermidis Se-1 (strain 14); experiment: as above; format: cell-based; conditions: Staphylococcus epidermidis, strain 14 (S. epidermidis Se-1)
Method: as §4, §5

[7] = test system: S. aureus Sa-3 (strain 3); experiment: as above; format: cell-based; conditions: Staphylococcus aureus, strain 3 (S. aureus Sa-3)
Method: as §4, §5

[8] = test system: S. aureus Sa-12 (strain 11); experiment: as above; format: cell-based; conditions: Staphylococcus aureus, strain 11 (S. aureus Sa-12)
Method: as §4, §5

[9] = test system: S. aureus Sa-11 (strain 10); experiment: as above; format: cell-based; conditions: Staphylococcus aureus, strain 10 (S. aureus Sa-11)
Method: as §4, §5

[10] = test system: S.aureus ATCC 700698 Sa-SARM (strain 15); experiment: as above; format: cell-based; conditions: Staphylococcus aureus, ATCC700698, strain 15 (S.aureus ATCC 700698, Sa-SARM)
Method: as §4, §5

[11] = test system: S. aureus Sa-13 (strain 12); experiment: as above; format: cell-based; conditions: Staphylococcus aureus, strain 12 (S. aureus Sa-13)
Method: as §4, §5

[12] = MH agar with 1/10 MIC of colargol, read-out: MIC (E-test) MH-1/10 MIC
[13] = MH agar with ½ MIC of colargol, read-out: MIC (E-test) MH-½ MIC
[14] = MH agar without silver, read-out: MIC (E-test) MH (without silver)

CO/N=C(\C(=O)N[C@@H]1C(=O)N2C(C(=O)O)=C(COC(C)=O)CS[C@H]12)c1csc(N)n1 [cefotaxime, Cefotaxime]
Effect of silver on the strain's sensitivity to the antibiotic [1]: improvement in the MIC

C[C@@H]1O[C@@H]1P(=O)(O)O [Fosfomicine, Fosfomycin]
Effect of silver on the strain's sensitivity to the antibiotic [2]: change to sensitive

Colistin
Effect of silver on the strain's sensitivity to the antibiotic [1]: improvement in the MIC | Effect of silver on the strain's sensitivity to the antibiotic [2]: moderate effect improving the MIC values

NC[C@H]1O[C@H](O[C@H]2[C@H](O)[C@@H](O[C@H]3O[C@H](CO)[C@@H](O)[C@H](N)[C@H]3O)[C@H](N)C[C@@H]2N)[C@H](N)C[C@@H]1O [tobramycin, Tobramycin]
Effect of silver on the strain's sensitivity to the antibiotic (E. coli BLEE +): becomes sensitive

CO/N=C(\C(=O)N[C@@H]1C(=O)N2C(C(=O)[O-])=C(C[N+]3(C)CCCC3)CS[C@H]12)c1csc(N)n1 [Cefepime]
Effect of silver on the strain's sensitivity to the antibiotic [2]: moderate effect improving the MIC values

Gentamicin
Effect of silver on the strain's sensitivity to the antibiotic (E. coli BLEE +): becomes sensitive

C[C@H]1[C@H](NC(=O)/C(=N\OC(C)(C)C(=O)O)c2csc(N)n2)C(=O)N1S(=O)(=O)O [aztreonam, Aztreonam]
Effect of silver on the strain's sensitivity to the antibiotic (Klebsiella BLEE +): becomes sensitive | Effect of silver on the strain's sensitivity to the antibiotic [2]: change to sensitive

Cn1nnc(-c2ccc(-c3ccc(N4C[C@H](CO)OC4=O)cc3F)cn2)n1 [Tedizolid]
MIC [3, 12]: 0.19 µg/mL | MIC [3, 13]: 0.19 µg/mL | MIC [3, 14]: 0.25 µg/mL | MIC [4, 12]: 0.38 µg/mL | MIC [4, 13]: 0.38 µg/mL | MIC [4, 14]: 0.5 µg/mL | MIC [5, 12]: 0.25 µg/mL | MIC [5, 13]: 0.19 µg/mL | MIC [5, 14]: 0.19 µg/mL | MIC [6, 12]: 0.38 µg/mL | MIC [6, 13]: 0.25 µg/mL | MIC [6, 14]: 0.38 µg/mL | MIC [7, 12]: 0.19 µg/mL | MIC [7, 13]: 0.125 µg/mL | MIC [7, 14]: 0.19 µg/mL | MIC [8, 13]: 0.25 µg/mL | MIC [8, 14]: 0.25 µg/mL | MIC [9, 13]: 0.25 µg/mL | MIC [9, 14]: 0.38 µg/mL

CC(=O)NC[C@H]1CN(c2ccc(N3CCOCC3)c(F)c2)C(=O)O1 [Linezolid]
MIC [10, 12]: 0.5 µg/mL | MIC [10, 13]: 0.38 µg/mL | MIC [10, 14]: 0.5 µg/mL | MIC [4, 12]: 1 µg/mL | MIC [4, 13]: 0.75 µg/mL | MIC [4, 14]: 0.75 µg/mL | MIC [6, 12]: 0.75 µg/mL | MIC [6, 13]: 0.5 µg/mL | MIC [6, 14]: 0.75 µg/mL | MIC [7, 12]: 1.5 µg/mL | MIC [7, 13]: 1 µg/mL | MIC [7, 14]: 1.5 µg/mL | MIC [8, 12]: 0.5 µg/mL | MIC [8, 13]: 0.5 µg/mL | MIC [8, 14]: 1 µg/mL | MIC [11, 12]: 0.38 µg/mL | MIC [11, 13]: 0.5 µg/mL | MIC [11, 14]: 0.5 µg/mL | MIC [9, 12]: 1.5 µg/mL | MIC [9, 13]: 1.5 µg/mL | MIC [9, 14]: 1.5 µg/mL

CCN1CCN(C(=O)N[C@@H](C(=O)N[C@@H]2C(=O)N3[C@@H]2SC(C)(C)[C@@H]3C(=O)O)c2ccccc2)C(=O)C1=O [Piperacillin]
Effect of silver on the strain's sensitivity to the antibiotic [2]: moderate effect improving the MIC values
